Assay results reported in ChEMBL document CHEMBL5543140 (J Med Chem, 2024).
Calls of active or inactive are those of the source. No cut-off for these calls is given here.

Key:
[1] = molecular target: T1, 5-hydroxytryptamine receptor 2A (Homo sapiens, UniProt P28223); experiment: Displacement of [3H]LSD from human 5-HT2A receptor expressed in HEK293 cell membrane incubated for 90 mins by microbeta liquid scintillation counting method; format: cell membranes
[2] = molecular target: 5-hydroxytryptamine receptor 2B (Homo sapiens, UniProt P41595); experiment: Displacement of [3H]LSD from human 5-HT2B receptor expressed in HEK293 cell membrane incubated for 90 mins by microbeta liquid scintillation counting method; format: cell membranes
[3] = tested on: Mus musculus; experiment: Psychedelic effect in C57BL/6J mouse assessed as number of head-twitch responses by visual observation at 3 mg/kg, po measured for 3 mins at 160 to 170 min; format: functional; settings: 0.05 h
[4] = molecular target: T1, 5-hydroxytryptamine receptor 2A; experiment: Agonist activity at human 5-HT2A receptor expressed in HEK293 cells assessed as IP2 production measured after 30 mins incubation by HTRF assay; format: functional, cell-based; settings: read-out: EC50
[5] = species on record: Homo sapiens; experiment: Selectivity ratio, ratio of Ki for human 5-HT2B receptor to human 5-HT2C receptor
[6] = molecular target: Muscarinic acetylcholine receptor M4 (Homo sapiens) (UniProt P08173); experiment: Displacement of [3H]4-DAMP from human recombinant muscarinic M4 receptor expressed in HEK293 cells at 10 uM incubated for 60 mins by radiometric based scintillation counter assay relative to control; format: cell-based
[7] = tested on: Mus musculus; experiment: Psychedelic effect in C57BL/6J mouse assessed as maximal number of 5-HT2A receptor dependent head-twitch responses by visual observation at 3 mg/kg, sc (reference value: 3); format: functional
[8] = tested on: Mus musculus; experiment: Psychedelic effect in C57BL/6J mouse assessed as induction of 5-HT2A receptor dependent head-twitch responses by visual observation at 3 mg/kg, sc in presence of ketanserin 1 mg/kg, sc measured after 24 hrs; format: functional, organism-based
[9] = tested on: Mus musculus; experiment: Psychedelic effect in C57BL/6J mouse assessed as development of tolerance/ tachyphylaxis at 0.3 mg/kg, sc measured on day 4 by head-twitch responses test; format: functional, organism-based; settings: time 4.0 day
[10] = Ex vivo binding in C57BL/6J mouse brain frontal cortex assessed as specific binding [3H]Cimbi-36 at 1 mg/kg, sc measured after 100 mins by liquid scintillation counting analysis (reference value: 1092 +/- 53); format: functional; settings: 1.667 h
[11] = Ex vivo binding in C57BL/6J mouse brain frontal cortex assessed as specific binding [3H]Cimbi-36 at 1 mg/kg, sc measured after 220 mins by liquid scintillation counting analysis (reference value: 1092 +/- 53); format: functional; settings: 3.667 h
[12] = Ex vivo binding in C57BL/6J mouse brain frontal cortex assessed as inhibition of [3H]Cimbi-36 binding at 1 mg/kg, sc measured after 40 mins by liquid scintillation counting analysis (reference value: 0%); format: functional
[13] = tested on: Hippocampus; experiment: Induction of neuroplasticity in C57BL/6J mouse assessed as increase in CREB1 mRNA expression in brain hippocampus at 3 mg/kg, sc single dose by RT-PCR analysis; format: functional, organism-based
[14] = tested on: Hippocampus; experiment: Induction of neuroplasticity in C57BL/6J mouse assessed as increase in SYN1 mRNA expression in brain hippocampus at 3 mg/kg, sc single dose by RT-PCR analysis; format: functional, organism-based
[15] = tested on: Mus musculus; experiment: Induction of neuroplasticity in C57BL/6J mouse assessed as increase in Homer1 mRNA expression in brain frontal cortex at 0.3 mg/kg, sc single dose by RT-PCR analysis; format: functional, organism-based
[16] = tested on: Hippocampus; experiment: Induction of neuroplasticity in C57BL/6J mouse assessed as increase in mTOR mRNA expression in brain hippocampus at 0.3 mg/kg, sc single dose by RT-PCR analysis; format: functional, organism-based
[17] = tested on: Hippocampus; experiment: Induction of neuroplasticity in C57BL/6J mouse assessed as increase in EGR2 mRNA expression in brain hippocampus at 0.3 mg/kg, sc single dose by RT-PCR analysis; format: functional, organism-based
[18] = Metabolic stability in mouse liver microsomes assessed as half life at 1 uM incubated for 120 mins in presence of NADPH; format: ADME, Microsome
[19] = Metabolic stability in rat hepatocytes assessed as half life at 10 uM; format: ADME, cell-based, Hepatocyte
[20] = Drug metabolism in human hepatocytes at 10 uM by HRAMS analysis; format: ADME, cell-based, Hepatocyte
[21] = Tmax in Wistar rat plasma at 5 mg/kg, po measured upto 48 hrs; format: ADME, organism-based
[22] = Half life in Wistar rat brain at 1 mg/kg, iv measured upto 48 hrs; format: ADME, organism-based
[23] = AUCinf in Wistar rat brain at 1 mg/kg, iv measured upto 48 hrs; format: ADME, organism-based
[24] = Tmax in Wistar rat brain at 5 mg/kg, po measured upto 48 hrs; format: ADME, organism-based
[25] = AUClast in Wistar rat brain at 5 mg/kg, po measured upto 48 hrs; format: ADME, organism-based
[26] = Drug excretion in Wistar rat urine at 5 mg/kg, po measured upto 48 hrs; format: ADME, organism-based; settings: read-out: Drug excretion
[27] = Tmax in male Sprague-Dawley rat plasma at 1 mg/kg, iv measured upto 8 hrs by LC-MS/MS analysis; format: ADME, organism-based
[28] = AUCinf in male Sprague-Dawley rat plasma at 1 mg/kg, iv measured upto 8 hrs by LC-MS/MS analysis; format: ADME, organism-based
[29] = Initial plasma concentration in beagle dog at 0.4 mg/kg, iv measured upto 24 hrs; format: ADME, organism-based, Canis lupus familiaris
[30] = AUClast in beagle dog at 0.4 mg/kg, iv measured upto 24 hrs; format: ADME, organism-based, Canis lupus familiaris; settings: in vivo
[31] = Renal clearance in beagle dog at 0.4 mg/kg, iv measured upto 24 hrs; format: ADME, organism-based, Canis lupus familiaris; settings: in vivo

T1 sequence (P28223 whole entry): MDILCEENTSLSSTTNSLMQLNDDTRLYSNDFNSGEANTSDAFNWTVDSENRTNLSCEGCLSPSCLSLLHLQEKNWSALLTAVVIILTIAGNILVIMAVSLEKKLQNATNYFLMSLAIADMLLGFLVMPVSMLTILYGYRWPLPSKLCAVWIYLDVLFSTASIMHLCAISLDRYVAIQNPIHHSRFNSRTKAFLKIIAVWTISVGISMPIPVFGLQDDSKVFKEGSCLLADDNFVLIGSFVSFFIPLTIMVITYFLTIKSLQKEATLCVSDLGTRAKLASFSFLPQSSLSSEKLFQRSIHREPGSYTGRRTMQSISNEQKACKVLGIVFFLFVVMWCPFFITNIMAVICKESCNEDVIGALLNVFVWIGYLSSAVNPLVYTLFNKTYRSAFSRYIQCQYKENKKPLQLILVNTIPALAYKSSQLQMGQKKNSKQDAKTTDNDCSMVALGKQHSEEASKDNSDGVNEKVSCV
Chain of 5-hydroxytryptamine receptor 2B (P41595 whole entry): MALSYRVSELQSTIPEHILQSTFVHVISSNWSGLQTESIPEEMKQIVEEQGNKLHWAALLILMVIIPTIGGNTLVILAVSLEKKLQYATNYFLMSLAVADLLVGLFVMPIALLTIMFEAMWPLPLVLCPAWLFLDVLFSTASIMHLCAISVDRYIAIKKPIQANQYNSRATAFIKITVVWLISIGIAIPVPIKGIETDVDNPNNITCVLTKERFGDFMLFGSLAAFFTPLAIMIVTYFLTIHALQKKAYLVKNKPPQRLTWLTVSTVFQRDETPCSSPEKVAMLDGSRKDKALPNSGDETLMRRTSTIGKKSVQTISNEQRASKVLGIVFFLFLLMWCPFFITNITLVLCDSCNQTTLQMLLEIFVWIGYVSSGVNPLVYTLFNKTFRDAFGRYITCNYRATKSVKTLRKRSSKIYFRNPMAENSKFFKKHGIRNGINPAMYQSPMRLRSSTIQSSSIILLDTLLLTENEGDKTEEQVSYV
Chain of Muscarinic acetylcholine receptor M4 (Homo sapiens) (P08173 whole entry): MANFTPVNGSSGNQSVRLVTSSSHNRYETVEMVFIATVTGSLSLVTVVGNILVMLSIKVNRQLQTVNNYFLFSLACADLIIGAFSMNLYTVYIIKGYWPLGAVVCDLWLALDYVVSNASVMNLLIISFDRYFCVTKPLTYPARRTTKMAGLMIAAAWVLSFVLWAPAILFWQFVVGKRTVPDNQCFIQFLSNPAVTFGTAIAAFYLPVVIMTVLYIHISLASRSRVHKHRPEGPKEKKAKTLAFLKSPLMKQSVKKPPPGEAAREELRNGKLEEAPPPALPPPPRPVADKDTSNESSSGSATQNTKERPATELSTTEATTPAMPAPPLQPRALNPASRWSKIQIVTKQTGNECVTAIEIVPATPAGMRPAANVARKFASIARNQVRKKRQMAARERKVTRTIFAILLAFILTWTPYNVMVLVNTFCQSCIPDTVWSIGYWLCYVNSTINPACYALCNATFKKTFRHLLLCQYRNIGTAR

Work on `COc1cc([Se]C(F)(F)F)c(OC)cc1CCN.Cl` yielded a Ki ([1]; read-out: Ki) of 3.2 nM, a Ki ([1]; read-out: pKi (converted)) of 3.02 nM and a Ki [2] of 14 nM. The Activity [3] was 29, the EC50 [4] was 3.6 nM and the Ratio Ki [5] was 12. The inhibition [6] was 86%, the Activity [7] was 23 and the Activity [8] was “inactive”. For the same compound, the Activity [9] was “Active”, the Activity [10] was 820 and the Activity [11] was 796. The inhibition in vivo at 1 mg/kg [12] was 33%, the Activity [13] was “inactive” and the Activity [14] was “inactive”. For the same compound, the Activity [15] was “Active”, the Activity [16] was “inactive” and the Activity [17] was “inactive”. The half-life at 1 µM [18] was > 2 h, the half-life at 10 µM [19] was 16 h and the Drug metabolism [20] was “Metabolite_Notdetected”. For the same compound, the Tmax [21] was 0.5 h, the half-life [22] was 2.44 h and the AUC(0-inf) [23] was 3260 ng·h/mL. It also gave a Tmax [24] of 2 h, an AUC(0-t) at 48 h [25] of 1860 ng·h/mL and a dose excreted at 48 h [26] of 0.3%. It also gave a Tmax [27] of 4.98 min, an AUC(0-inf) [28] of 210 ng·h/mL and a C0 at 24 h [29] of 121 ng/mL. The AUC(0-t) at 24 h [30] was 366 ng·h/mL and the CL renal at 24 h [31] was 0.6 mL/min/kg.
